According to PMC3983011 (2014):

What was measured:
Settings in all cases: 150 mM NaCl, 5 mM MgCl2; 10 mM HEPES, pH 7.4, 25 °C; immobilised aptamer
[1] = system: 44.Arg11 arginine aptamer (RNA, aptamer) GGGACGAGAAGGAGCGCUGGUUAUACUAGCAGGUAGGUCACUCGUCCCCCAAAAAAAAAAAAAAAAAAAAAAAA; assay: SPR, steady-state affinity fit
[2] = system: DH25.42 ATP aptamer (DNA, aptamer) CCTGGGGGAGTATTGCGGAGGAAGGAAAAAAAAAAAAAAAAAAAAAAAA; assay: SPR, steady-state affinity fit
[3] = system: 35FMN-2 flavin mononucleotide aptamer (RNA, aptamer) GGGCGUGUAGGAUAUCGUGUUCGAGAAGGACACGCCCCCCAAAAAAAAAAAAAAAAAAAAAAAA; assay: SPR kinetics, kd/ka, 1:1 fit
[4] = system: 35FMN-2 flavin mononucleotide aptamer (RNA, aptamer) GGGCGUGUAGGAUAUCGUGUUCGAGAAGGACACGCCCCCCAAAAAAAAAAAAAAAAAAAAAAAA; assay: SPR, steady-state affinity fit
[5] = system: 44.Cit11 citrulline aptamer (RNA, aptamer) GGGACGAGAAGGAGUGCUGGUUAUACUAGCGGUUAGGUCACUCGUCCCCCAAAAAAAAAAAAAAAAAAAAAAAA; assay: SPR, steady-state affinity fit
[6] = system: minimal MG-4 malachite green aptamer (RNA, aptamer) GGGAUCCCGACUGGCGAGAGCCAGGUAACGAAUGGAUCCCCCCAAAAAAAAAAAAAAAAAAAAAAAA; assay: SPR, steady-state affinity fit
[7] = system: minimal MG-4 malachite green aptamer (RNA, aptamer) GGGAUCCCGACUGGCGAGAGCCAGGUAACGAAUGGAUCCCCCCAAAAAAAAAAAAAAAAAAAAAAAA; assay: SPR kinetics, kd/ka, 1:1 fit
[8] = system: minimal Tyr 1 tyrosine aptamer (RNA, aptamer) GGGGGCAGUCAACUCGUAAGAUGGCCUUACAGCGGUCAAUACGGGGGUCAUCAGAUAGGGAGGCCCCCCAAAAAAAAAAAAAAAAAAAAAAAA; assay: SPR, steady-state affinity fit
[9] = system: c-di-GMP class II riboswitch (RNA, riboswitch) GGGUAUUUAUAGAAACUGUGAAGUAUAUCUUAAACCUGGGCACUUAAAAGAUAUAUGGAGUUAGUAGUGCAACCUGCUAUAAAUACCCCAAAAAAAAAAAAAAAAAAAAAAAA; assay: SPR kinetics, kd/ka, 1:1 fit
[10] = system: c-di-GMP class II riboswitch (RNA, riboswitch) GGGUAUUUAUAGAAACUGUGAAGUAUAUCUUAAACCUGGGCACUUAAAAGAUAUAUGGAGUUAGUAGUGCAACCUGCUAUAAAUACCCCAAAAAAAAAAAAAAAAAAAAAAAA; assay: SPR, steady-state affinity fit
[11] = system: minimal thiM TPP riboswitch (RNA, riboswitch) GGGACUCGGGGUGCCCUUCUGCGUGAAGGCUGAGAAAUACCCGUAUCACCUGAUCUGGAUAAUGCCAGCGUAGGGAAGUCCCCCAAAAAAAAAAAAAAAAAAAAAAAA; assay: SPR kinetics, kd/ka, 1:1 fit
[12] = system: TCT8-4 theophylline aptamer (RNA, aptamer) GGGAAGUGAUACCAGCAUCGUCUUGAUGCCCUUGGCAGCACUUCCCCCAAAAAAAAAAAAAAAAAAAAAAAA; assay: SPR, steady-state affinity fit
[13] = system: TCT8-4 theophylline aptamer (RNA, aptamer) GGGAAGUGAUACCAGCAUCGUCUUGAUGCCCUUGGCAGCACUUCCCCCAAAAAAAAAAAAAAAAAAAAAAAA; assay: SPR kinetics, kd/ka, 1:1 fit

N=C(N)NCCC[C@H](N)C(=O)O
KD,equilibrium [1]: 140000 ± 40000 nM

Nc1ncnc2c1ncn2[C@@H]1O[C@H](COP(=O)(O)OP(=O)(O)OP(=O)(O)O)[C@@H](O)[C@H]1O
KD,equilibrium [2]: 8800 ± 3000 nM

Cc1cc2nc3c(=O)[nH]c(=O)nc-3n(C[C@H](O)[C@H](O)[C@H](O)COP(=O)(O)O)c2cc1C
KD,kinetic [3]: 1100 ± 400 nM | KD,equilibrium [4]: 710 ± 20 nM

NC(=O)NCCC[C@H](N)C(=O)O
KD,equilibrium [5]: 31000 ± 1000 nM

CN(C)c1ccc(C(=C2C=CC(=[N+](C)C)C=C2)c2ccccc2)cc1
KD,equilibrium [6]: 2000 ± 100 nM | KD,kinetic [7]: 950 ± 340 nM

N[C@@H](Cc1ccc(O)cc1)C(=O)O
KD,equilibrium [8]: 17000 ± 6000 nM

Nc1nc2c(ncn2[C@@H]2O[C@@H]3COP(=O)(O)O[C@H]4[C@@H](O)[C@H](n5cnc6c(=O)[nH]c(N)nc65)O[C@@H]4COP(=O)(O)O[C@H]3[C@H]2O)c(=O)[nH]1
KD,kinetic [9]: 60 ± 31 nM | KD,equilibrium [10]: 120 ± 20 nM

Cc1ncc(C[n+]2csc(CCOP(=O)(O)OP(=O)(O)O)c2C)c(N)n1
KD,kinetic [11]: 0.89 ± 0.8 nM

Cn1c(=O)c2[nH]cnc2n(C)c1=O
KD,equilibrium [12]: 340 ± 20 nM | KD,kinetic [13]: 430 ± 40 nM
